Results: PubChem BioAssay (NCI)
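Each compound was tested at five concentrations against cells in 96-well plates for 48 hours. TGI is the concentration that stops growth completely.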

What was measured:
Test in all cases: inhibition of tumour cell growth, NCI panel, 48 h
786-0 renal = tested on: 786-0 renal
A498 renal = tested on: A498 renal
A549 NSCLC = tested on: A549 NSCLC
ACHN renal = tested on: ACHN renal
BT-549 breast = tested on: BT-549 breast
CAKI-1 renal = tested on: CAKI-1 renal
CCRF-CEM leukemia = tested on: CCRF-CEM leukemia
COLO 205 colon = tested on: COLO 205 colon
DU-145 prostate = tested on: DU-145 prostate
EKVX NSCLC = tested on: EKVX NSCLC
HCC-2998 colon = tested on: HCC-2998 colon
HCT-116 colon = tested on: HCT-116 colon
HCT-15 colon = tested on: HCT-15 colon
HL-60(TB) leukemia = tested on: HL-60(TB) leukemia
HOP-62 NSCLC = tested on: HOP-62 NSCLC
HOP-92 NSCLC = tested on: HOP-92 NSCLC
HS 578T breast = tested on: HS 578T breast
HT29 colon = tested on: HT29 colon
IGROV1 ovarian = tested on: IGROV1 ovarian
K-562 leukemia = tested on: K-562 leukemia
KM12 colon = tested on: KM12 colon
LOX IMVI melanoma = tested on: LOX IMVI melanoma
M14 melanoma = tested on: M14 melanoma
MALME-3M melanoma = tested on: MALME-3M melanoma
MCF7 breast = tested on: MCF7 breast
MDA-MB-435 = tested on: MDA-MB-435
MDA-N = tested on: MDA-N
MOLT-4 leukemia = tested on: MOLT-4 leukemia
NCI-H226 lung = tested on: NCI-H226 lung
NCI-H23 lung = tested on: NCI-H23 lung
NCI-H460 lung = tested on: NCI-H460 lung
NCI-H522 lung = tested on: NCI-H522 lung
NCI/ADR-RES ovarian = tested on: NCI/ADR-RES ovarian
OVCAR-3 ovarian = tested on: OVCAR-3 ovarian
OVCAR-4 ovarian = tested on: OVCAR-4 ovarian
OVCAR-5 ovarian = tested on: OVCAR-5 ovarian
OVCAR-8 ovarian = tested on: OVCAR-8 ovarian
RXF 393 renal = tested on: RXF 393 renal
SF-268 CNS = tested on: SF-268 CNS
SF-295 CNS = tested on: SF-295 CNS
SF-539 CNS = tested on: SF-539 CNS
SK-MEL-28 melanoma = tested on: SK-MEL-28 melanoma
SK-MEL-5 melanoma = tested on: SK-MEL-5 melanoma
SK-OV-3 ovarian = tested on: SK-OV-3 ovarian
SN12C renal = tested on: SN12C renal
SNB-19 CNS = tested on: SNB-19 CNS
SNB-75 CNS = tested on: SNB-75 CNS
SR leukemia = tested on: SR leukemia
SW-620 colon = tested on: SW-620 colon
T-47D breast = tested on: T-47D breast
UACC-257 melanoma = tested on: UACC-257 melanoma
UACC-62 melanoma = tested on: UACC-62 melanoma
UO-31 renal = tested on: UO-31 renal
MDA-MB-231 breast = tested on: MDA-MB-231 breast
SK-MEL-2 melanoma = tested on: SK-MEL-2 melanoma
TK-10 renal = tested on: TK-10 renal
U251 CNS = tested on: U251 CNS

COc1cc(/C=C2\N=C(c3ccccc3)N(c3cc4cc(Sc5ccccc5)ccc4[nH]3)C2=O)cc(OC)c1OC
TGI (786-0 renal): 26 µM | TGI (A498 renal): 42.9 µM | TGI (A549 NSCLC): > 75 µM | TGI (ACHN renal): > 75 µM | TGI (BT-549 breast): 31.6 µM | TGI (CAKI-1 renal): > 75 µM | TGI (CCRF-CEM leukemia): 51.7 µM | TGI (COLO 205 colon): 21.3 µM | TGI (DU-145 prostate): 37.9 µM | TGI (EKVX NSCLC): 67.5 µM | TGI (HCC-2998 colon): 22.9 µM | TGI (HCT-116 colon): 23.9 µM | TGI (HCT-15 colon): 50.2 µM | TGI (HL-60(TB) leukemia): 31.9 µM | TGI (HOP-62 NSCLC): 41.2 µM | TGI (HOP-92 NSCLC): 29.8 µM | TGI (HS 578T breast): > 75 µM | TGI (HT29 colon): 44.8 µM | TGI (IGROV1 ovarian): > 75 µM | TGI (K-562 leukemia): 17.9 µM | TGI (KM12 colon): 56.8 µM | TGI (LOX IMVI melanoma): 22.2 µM | TGI (M14 melanoma): 22.8 µM | TGI (MALME-3M melanoma): 11.1 µM | TGI (MCF7 breast): 25.1 µM | TGI (MDA-MB-435): 31 µM | TGI (MDA-N): 15.9 µM | TGI (MOLT-4 leukemia): 26.9 µM | TGI (NCI-H226 lung): 28.9 µM | TGI (NCI-H23 lung): > 75 µM | TGI (NCI-H460 lung): 35.2 µM | TGI (NCI-H522 lung): 12.9 µM | TGI (NCI/ADR-RES ovarian): 59.1 µM | TGI (OVCAR-3 ovarian): 60.1 µM | TGI (OVCAR-4 ovarian): > 75 µM | TGI (OVCAR-5 ovarian): > 75 µM | TGI (OVCAR-8 ovarian): 41.5 µM | TGI (RXF 393 renal): 26.8 µM | TGI (SF-268 CNS): 18.2 µM | TGI (SF-295 CNS): 73.2 µM | TGI (SF-539 CNS): 24.6 µM | TGI (SK-MEL-28 melanoma): 35.8 µM | TGI (SK-MEL-5 melanoma): 20.4 µM | TGI (SK-OV-3 ovarian): > 75 µM | TGI (SN12C renal): 52.6 µM | TGI (SNB-19 CNS): > 75 µM | TGI (SNB-75 CNS): 56.2 µM | TGI (SR leukemia): 12.3 µM | TGI (SW-620 colon): 68 µM | TGI (T-47D breast): 34.2 µM | TGI (UACC-257 melanoma): 40.3 µM | TGI (UACC-62 melanoma): 24.5 µM | TGI (UO-31 renal): 48.9 µM

CC(C)=C1C(=O)c2c(Cl)sc(Cl)c2C1=O
TGI (786-0 renal): 74.9 µM | TGI (A498 renal): > 100 µM | TGI (A549 NSCLC): 81.8 µM | TGI (ACHN renal): 40.8 µM | TGI (BT-549 breast): 42.9 µM | TGI (CAKI-1 renal): 32.7 µM | TGI (CCRF-CEM leukemia): > 100 µM | TGI (COLO 205 colon): 38.2 µM | TGI (DU-145 prostate): 62.1 µM | TGI (EKVX NSCLC): 81.1 µM | TGI (HCT-116 colon): 33 µM | TGI (HCT-15 colon): 43.3 µM | TGI (HL-60(TB) leukemia): 90.7 µM | TGI (HOP-62 NSCLC): > 100 µM | TGI (HOP-92 NSCLC): 45.5 µM | TGI (HS 578T breast): 80.2 µM | TGI (HT29 colon): 67.8 µM | TGI (IGROV1 ovarian): 46 µM | TGI (K-562 leukemia): > 100 µM | TGI (KM12 colon): 33.8 µM | TGI (LOX IMVI melanoma): 34.2 µM | TGI (M14 melanoma): 37.9 µM | TGI (MALME-3M melanoma): 44.5 µM | TGI (MCF7 breast): > 100 µM | TGI (MDA-MB-231 breast): 57.4 µM | TGI (MDA-MB-435): 39 µM | TGI (MDA-N): 64 µM | TGI (MOLT-4 leukemia): 94.7 µM | TGI (NCI-H226 lung): > 100 µM | TGI (NCI-H23 lung): 36.6 µM | TGI (NCI-H460 lung): > 100 µM | TGI (NCI-H522 lung): 32.6 µM | TGI (NCI/ADR-RES ovarian): 54.5 µM | TGI (OVCAR-3 ovarian): 75.1 µM | TGI (OVCAR-4 ovarian): 34.5 µM | TGI (OVCAR-5 ovarian): > 100 µM | TGI (OVCAR-8 ovarian): 38.3 µM | TGI (SF-268 CNS): 79.5 µM | TGI (SF-295 CNS): > 100 µM | TGI (SF-539 CNS): 50.5 µM | TGI (SK-MEL-2 melanoma): 50.6 µM | TGI (SK-MEL-28 melanoma): 58.3 µM | TGI (SK-MEL-5 melanoma): > 100 µM | TGI (SK-OV-3 ovarian): > 100 µM | TGI (SN12C renal): 48 µM | TGI (SNB-75 CNS): 59.9 µM | TGI (SR leukemia): > 100 µM | TGI (SW-620 colon): 70.5 µM | TGI (T-47D breast): 97.6 µM | TGI (TK-10 renal): 56.7 µM | TGI (U251 CNS): 46.3 µM | TGI (UACC-257 melanoma): 43 µM | TGI (UACC-62 melanoma): 38.3 µM | TGI (UO-31 renal): 60.4 µM
